Where two headings read alike, the source gives them in different places.
Assays:
Mcl-1 protein = Mcl-1 protein (UniProtKB primary accession number: Q07820) (Homo sapiens, UniProt Q07820); assay: Inhibition of Mcl-1 by fluorescence polarisation, Method 1; format: binding; conditions: read-out: IC50 (M) Mcl-1 FP
Outline: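 Fluorescence polarisation competition with an 11-point compound dilution series (final DMSO 5%). Mcl-1 protein at 5 nM and fluorescein-labelled ligand at 1 nM (final) in 10 mM HEPES, 150 mM NaCl, 0.05% Tween 20, pH 7.4.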

[1] = system: H929 multiple myeloma tumour line; assay: In vitro cytotoxicity, Microculture Tetrazolium Assay; format: cell-based; conditions: H929 cells, 48 hours exposure, MTT, read-out: IC50 (μM) MTT H929
Method: The cytotoxicity studies were carried out on the H929 multiple myeloma tumour line.
The cells are distributed onto microplates and exposed to the test compounds for 48 hours.

[2] = fluorescence polarisation, Method 1, or Method 2
[3] = fluorescence polarisation test, Method 2 values are underlined in the patent (underlining not visible here)

Chain of Mcl-1 protein (Q07820 whole entry): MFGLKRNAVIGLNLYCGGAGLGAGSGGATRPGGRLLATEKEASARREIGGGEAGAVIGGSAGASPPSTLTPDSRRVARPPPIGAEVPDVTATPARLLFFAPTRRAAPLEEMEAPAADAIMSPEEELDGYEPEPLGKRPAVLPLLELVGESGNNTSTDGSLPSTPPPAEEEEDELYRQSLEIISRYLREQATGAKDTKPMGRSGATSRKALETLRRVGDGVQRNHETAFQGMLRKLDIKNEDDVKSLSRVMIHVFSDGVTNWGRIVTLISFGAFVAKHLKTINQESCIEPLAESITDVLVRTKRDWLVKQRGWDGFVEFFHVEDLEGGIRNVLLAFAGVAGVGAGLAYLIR

| SMILES | IC50 (Mcl-1 protein; [2]) [M] | IC50 ([1]; Homo sapiens, NCI-H929, 48 h) [µM] | IC50 (Mcl-1 protein; [3]) [M] | IC50 [1] [µM] |
| --- | --- | --- | --- | --- |
| CCc1sc2ncnc(OC(Cc3ccccc3F)C(=O)O)c2c1-c1ccc(OCCN2CCN(C)CC2)c(Cl)c1C [Example 463, (2R)-2-[((5Sa)-5-{3-chloro-2-methyl-4-[2-(4-methylpiperazin-1-yl)ethoxy]phenyl}-6-ethylthieno[2,3-d]pyrimidin-4-yl)oxy]-3-(2-fluorophenyl)propanoic acid] | 4.6e-08 | 5.11 |  |  |
| Cc1c(-c2c(-c3ccc(F)o3)sc3ncnc(OC(Cc4ccccc4OCCN(C)C)C(=O)O)c23)ccc(OCCN2CCN(C)CC2)c1Cl [Example 192, (2R)-2-{[(5Sa)-5-{3-chloro-2-methyl-4-[2-(4-methylpiperazin-1-yl)ethoxy]phenyl}-6-(5-fluorofuran-2-yl)thieno[2,3-d]pyrimidin-4-yl]oxy}-3-{2-[2-(dimethylamino)ethoxy]phenyl}propanoic acid] |  | 0.848 | 7.7e-09 |  |
| COc1ccccc1CC(Oc1ncnc2sc(-c3cc(C)co3)c(-c3ccc(OCCN4CCN(C)CC4)c(Cl)c3C)c12)C(=O)O [Example 529, (2R)-2-{[(5Sa)-5-{3-chloro-2-methyl-4-[2-(4-methylpiperazin-1-yl)ethoxy]phenyl}-6-(4-methylfuran-2-yl)thieno[2,3-d]pyrimidin-4-yl]oxy}-3-(2-methoxyphenyl)propanoic acid] | 1.3e-08 | 0.308 |  |  |
| Cc1cnc(COc2ccccc2CC(Oc2ncnc3sc(-c4ccco4)c(-c4ccc(OCCN5CCN(C)CC5)c(Cl)c4C)c23)C(=O)O)cn1 [Example 268, (2R)-2-{[(5Sa)-5-{3-chloro-2-methyl-4-[2-(4-methylpiperazin-1-yl)ethoxy]phenyl}-6-(furan-2-yl)thieno[2,3-d]pyrimidin-4-yl]oxy}-3-{2-[(5-methylpyrazin-2-yl)methoxy]phenyl}propanoic acid] |  | 0.086 | 8.2e-09 |  |
| Cc1c(-c2c(-c3ccco3)sc3ncnc(O[C@H](Cc4ccccc4OCc4ccco4)C(=O)O)c23)ccc(OCCN2CCN(C)CC2)c1Cl [Example 244, (2R)-2-{[(5Sa)-5-{3-chloro-2-methyl-4-[2-(4-methylpiperazin-1-yl)ethoxy]phenyl}-6-(furan-2-yl)thieno[2,3-d]pyrimidin-4-yl]oxy}-3-[2-(furan-2-ylmethoxy)phenyl]propanoic acid] |  |  | 8.6e-09 | 0.205 |
| Cc1c(-c2c(-c3ccco3)sc3ncnc(O[C@H](Cc4ccccc4OCc4ccnc(N)n4)C(=O)O)c23)ccc(OCCN2CCN(C)CC2)c1Cl [Example 250, (2R)-3-{2-[(2-aminopyrimidin-4-yl)methoxy]phenyl}-2-{[(5Sa)-5-{3-chloro-2-methyl-4-[2-(4-methylpiperazin-1-yl)ethoxy]phenyl}-6-(furan-2-yl)thieno[2,3-d]pyrimidin-4-yl]oxy}propanoic acid] |  |  | 3.6e-09 | 0.499 |
| COc1ccccc1CC(Oc1ncnc2sc(-c3cccc4occc34)c(-c3ccc(OCCN4CCN(C)CC4)c(Cl)c3C)c12)C(=O)O [Example 563, (2R)-2-{[6-(1-benzofuran-4-yl)-(5Sa)-5-{3-chloro-2-methyl-4-[2-(4-methylpiperazin-1-yl)ethoxy]phenyl}thieno[2,3-d]pyrimidin-4-yl]oxy}-3-(2-methoxyphenyl)propanoic acid] | 7.4e-08 | 1.16 |  |  |
| CCCCn1nccc1COc1ccccc1CC(Oc1ncnc2sc(-c3ccc(F)cc3)c(-c3ccc(OCCN(C)C)c(Cl)c3C)c12)C(=O)O [Example 133, (2R)-3-{2-[(1-butyl-1H-pyrazol-5-yl)methoxy]phenyl}-2-{[(5Sa)-5-{3-chloro-4-[2-(dimethylamino)ethoxy]-2-methylphenyl}-6-(4-fluorophenyl)thieno[2,3-d]pyrimidin-4-yl]oxy}propanoic acid] |  | 0.099 | 3.4e-09 |  |
| COCCOCCOc1ccccc1CC(Oc1ncnc2sc(-c3ccc(F)o3)c(-c3ccc(OCCN4CCN(C)CC4)c(Cl)c3C)c12)C(=O)O [Example 196, (2R)-2-{[(5Sa)-5-{3-chloro-2-methyl-4-[2-(4-methylpiperazin-1-yl)ethoxy]phenyl}-6-(5-fluorofuran-2-yl)thieno[2,3-d]pyrimidin-4-yl]oxy}-3-{2-[2-(2-methoxyethoxy)ethoxy]phenyl}propanoic acid] |  | 0.076 | 5.6e-09 |  |
| Cc1c(-c2c(-c3ccco3)sc3ncnc(OC(Cc4ccccc4NC(=O)OC(C)(C)C)C(=O)O)c23)ccc(OCCN2CCN(C)CC2)c1Cl [Example 358, (2R)-3-{2-[(tert-butoxycarbonyl)amino]phenyl}-2-{[(5Sa)-5-{3-chloro-2-methyl-4-[2-(4-methylpiperazin-1-yl)ethoxy]phenyl}-6-(furan-2-yl)thieno[2,3-d]pyrimidin-4-yl]oxy}propanoic acid] |  | 1.61 | 9.5e-09 |  |
| Cc1c(-c2c(-c3cccc(F)c3F)sc3ncnc(OC(Cc4ccccc4OCc4ccnn4C(C)(C)C)C(=O)O)c23)ccc(OCCN(C)C)c1Cl [Example 755, (2R)-3-{2-[(1-tert-butyl-1H-pyrazol-5-yl)methoxy]phenyl}-2-{[(5Sa)-5-{3-chloro-4-[2-(dimethylamino)ethoxy]-2-methylphenyl}-6-(2,3-difluorophenyl)thieno[2,3-d]pyrimidin-4-yl]oxy}propanoic acid] | 4.65e-09 | 0.032 |  |  |
| Cc1c(-c2c(-c3ccc(F)o3)sc3ncnc(OC(Cc4ccccc4OCc4ccnc(OCC(F)(F)F)n4)C(=O)O)c23)ccc(OCCN(C)C)c1Cl [Example 203, (2R)-2-{[(5Sa)-5-{3-chloro-4-[2-(dimethylamino)ethoxy]-2-methylphenyl}-6-(5-fluorofuran-2-yl)thieno[2,3-d]pyrimidin-4-yl]oxy}-3-(2-{[2-(2,2,2-trifluoroethoxy)pyrimidin-4-yl]methoxy}phenyl)propanoic acid] |  | 0.005 | 9.1e-09 |  |
| Cc1c(-c2c(-c3ccco3)sc3ncnc(OC(Cc4ccccc4F)C(=O)O)c23)ccc(OCCN2CCN(C)CC2)c1Cl [Example 357, (2R)-2-{[(5Sa)-5-{3-chloro-2-methyl-4-[2-(4-methylpiperazin-1-yl)ethoxy]phenyl}-6-(furan-2-yl)thieno[2,3-d]pyrimidin-4-yl]oxy}-3-(2-fluorophenyl)propanoic acid] |  |  | 5.5e-07 | 3.39 |
| Cc1c(-c2c(-c3ccc(F)cc3)sc3ncnc(OC(Cc4ccccc4OCc4ccnc(-c5cccs5)c4)C(=O)O)c23)ccc(OCCN2CCN(C)CC2)c1Cl [Example 18, (2R)-2-{[(5Sa)-5-{3-chloro-2-methyl-4-[2-(4-methylpiperazin-1-yl)ethoxy]phenyl}-6-(4-fluorophenyl)thieno[2,3-d]pyrimidin-4-yl]oxy}-3-(2-{[2-(thiophen-2-yl)pyridin-4-yl]methoxy}phenyl)propanoic acid] |  | 0.076 | 8.3e-09 |  |
| COc1ccccc1CC(Oc1ncnc2sc(-c3cccc(Cl)c3F)c(-c3ccc(OCCN4CCN(C)CC4)c(Cl)c3C)c12)C(=O)O [Example 559, (2R)-2-{[6-(3-chloro-2-fluorophenyl)-(5Sa)-5-{3-chloro-2-methyl-4-[2-(4-methylpiperazin-1-yl)ethoxy]phenyl}thieno[2,3-d]pyrimidin-4-yl]oxy}-3-(2-methoxyphenyl)propanoic acid] | 5.2e-09 | 0.293 |  |  |
| COc1ccccc1CC(Oc1ncnc2sc(-c3ccco3)c(-c3ccc(OCC4CN(C)CCO4)c(Cl)c3C)c12)C(=O)O [Example 314, (2R)-2-{[(5Sa)-5-{3-chloro-2-methyl-4-[(4-methylmorpholin-2-yl)methoxy]phenyl}-6-(furan-2-yl)thieno[2,3-d]pyrimidin-4-yl]oxy}-3-(2-methoxyphenyl)propanoic acid] |  | 1.82 | 6.9e-09 |  |
| CCOCCn1nccc1COc1ccccc1CC(Oc1ncnc2sc(-c3ccc(F)cc3)c(-c3ccc(OCCN(C)C)c(Cl)c3C)c12)C(=O)O [Example 754, (2R)-2-{[(5Sa)-5-{3-chloro-4-[2-(dimethylamino)ethoxy]-2-methylphenyl}-6-(4-fluorophenyl)thieno[2,3-d]pyrimidin-4-yl]oxy}-3-(2-{[1-(2-ethoxyethyl)-1H-pyrazol-5-yl]methoxy}phenyl)propanoic acid] | 4.7e-09 | 0.089 |  |  |
| COc1ccccc1CC(Oc1ncnc2sc(-c3ccc(F)c(C(F)(F)F)c3)c(-c3ccc(OCCN4CCN(C)CC4)c(Cl)c3C)c12)C(=O)O [Example 531, (2R)-2-[(5Sa)-(5-{3-chloro-2-methyl-4-[2-(4-methylpiperazin-1-yl)ethoxy]phenyl}-6-[4-fluoro-3-(trifluoromethyl)phenyl]thieno[2,3-d]pyrimidin-4-yl)oxy]-3-(2-methoxyphenyl)propanoic acid] | 3.5e-09 | 1.22 |  |  |
| COc1ccccc1-c1nccc(COc2ccccc2CC(Oc2ncnc3sc(-c4ccc(OCc5ccc(Cl)cc5)cc4)c(-c4ccc(OCCN5CCN(C)CC5)c(Cl)c4C)c23)C(=O)O)n1 [Example 775, (2R)-2-[(6-{4-[(4-chlorobenzyl)oxy]phenyl}-(5Sa)-5-{3-chloro-2-methyl-4-[2-(4-methylpiperazin-1-yl)ethoxy]phenyl}thieno[2,3-d]pyrimidin-4-yl)oxy]-3-(2-{[2-(2-methoxyphenyl)pyrimidin-4-yl]methoxy}phenyl)propanoic acid] | 3.55e-09 | 0.039 |  |  |
| Cc1c(-c2c(-c3ccc(F)cc3)sc3ncnc(OC(Cc4ccccc4OCc4cncnc4)C(=O)O)c23)ccc(OCCN2CCN(C)CC2)c1Cl [Example 93, (2R)-2-{[(5Sa)-5-{3-chloro-2-methyl-4-[2-(4-methylpiperazin-1-yl)ethoxy]phenyl}-6-(4-fluorophenyl)thieno[2,3-d]pyrimidin-4-yl]oxy}-3-[2-(pyrimidin-5-ylmethoxy)phenyl]propanoic acid] |  | 0.087 | 1.4e-08 |  |

— patent US9670227B2, “Thienopyrimidine derivatives, a process for their preparation and pharmaceutical compositions containing them” (LES LABORATOIRES SERVIER, priority 2013, dated 2017)
